Measurements published in patent US20050043262A1, “Novel specific inhibitor of the cyclin kinase inhibitor p21Waf1/Cip1 and methods of using the inhibitor” (priority 2000, published 2005).

How the values were obtained:
T47D cells = assay: [3H]thymidine incorporation in T47D cells; assay type: cell-based, human; details: 200 nM, serum 24 hours
Protocol: Cell Culture and DNA Synthesis: T47D (ductal carcinoma) and MCF7 (adenocarcinoma) human breast cancer cell lines were obtained from the American Type Culture Collection. All cell lines were maintained according to vendors' recommendations. The cells were growth arrested by placing them in serum-free quiescence media and exposed to 10% serum-containing media as indicated. [^3H]Thymidine incorporation was assessed as described previously (Weiss, R. H., and Nuccitelli, R., J. Biol. Chem., 267: 5608-5613, 1992).
Apoptotic cells will not incorporate thymidine into DNA during S phase, but [^3H]thymidine incorporation experiments will not distinguish between G1→S arrest and apoptosis. Serum-starved cells were transfected with 200 nM antisense p21 and control ODN, stimulated with serum-containing media, and examined for their ability to incorporate [^3H]thymidine into DNA. […] Antisense p21 attenuates [^3H]thymidine incorporation. MCF7 and T47D cells were grown to confluence, serum starved for 24 hours, and lipofected with antisense p21 (AS) or control (SC) ODN at the concentrations indicated (in nM). […] Serum was added for 24 hours, and the cells were incubated with [^3H]thymidine for the last 6 hours. DNA synthesis was assessed by [^3H]thymidine incorporation and is expressed as mean +SD of 3 wells/data point. *, P <0.05 compared with antisense p21 ODN transfection. […]

MAPK = MAPK level (immunoblot) in ODN-transfected breast cancer cells; assay type: cell-based, human; details: ODN-transfected cells compared with controls
Protocol: Due to the high levels of p21 in these two human breast cancer cell lines, it was reasoned that, in a manner similar to their effect in VSM cells (Weiss, R. H., Joo, A., and Randour, C., J. Biol. Chem., 275: 10285-10290, 2000), antisense ODNs to p21 may result in increased apoptosis and/or cell cycle arrest. […] T47D and MCF7 cells were lipofected with either antisense p21 ODN (200 or 400 nM), the control ODN at the same concentrations, or lipofectin alone (no DNA). MCF7 and T47D cells were grown to confluence, serum starved for 24 hours, and lipofected with antisense p21 or control ODN or lipofectin only. cont refers to nontransfected cells. The cells were subsequently serum stimulated for another 24 hours. A and B, the cells were lysed, and equal protein quantities (20 μg) were electrophoresed and immunoblotted with p21 antibody. The same lysate was immunoblotted with MAPK antibody as a loading control. Density of p21 and MAPK bands was determined and reported as a ratio. C, the cells were transfected as described in A, fixed, subjected to immunohistochemistry with p21 antibody as described in “Immunohistochemistry” in Example VI, and examined under visible light at X400. Control cells (FIG. 30, cont) were not transfected. […] There was no effect of lipofectin alone when compared with no transfection (control).

A10 VSM cells = assay: [3H]thymidine incorporation (DNA synthesis) in A10 VSM cells; assay type: cell-based, rat
cyclinE/cdk2 = assay: Cyclin E immunoprecipitation / cdk2 immunoblot in A431 cells; assay type: cell-based, human; details: 10 min to 6 hours of PDGF exposure
From the text: Cyclin/cdk interactions occur after growth factor stimulation and serve to integrate such responses with the CKIs and transmit them to the Rb/E2F systems, which leads to mitogenic signal transmission. The cyclin D1/cdk 4 interaction occurs early after growth factor stimulation (reviewed in (Arellano and Moreno, 1997 Int. J. Biochem. Cell Biol., 29, p. 559-573)), while the cyclinE/cdk2 interaction occurs late in G1 and is thought to have a role in triggering the actual onset of DNA replication after the cells have passed the restriction point (reviewed in (Sherr and Roberts, 1995: Genes Dev., 9, p. 1149-1163)). A431 cells were transfected with p21^Waf1/Cip1 antisense (SEQ. ID NO.:1) or sense (SEQ. ID NO.:2) oligodeoxynucleotide, allowed to grow overnight in serum-free media, and then stimulated for various times with PDGF-BB. The cells were subsequently immunoprecipitated with either cyclinD1 or cyclinE and immunoblotted with cdk4 or cdk2, respectively. A lysate sample, showing the mobility of the immunoprecipitated cdks, confirmed the identity of the cdks. A431 cells were transfected with antisense (SEQ. ID NO.:1) or sense p21^Waf1/Cip1 (SEQ. ID NO.:2) oligonucleotides. […]

Met-1 cells = details: Weiss et al., Cancer Lett. 2003; cited from earlier work

With “5′-ATC-CCC-AGC-CGG-TTC-TGA-CAT-3′ (antisense ATCCCCAGCCGGTTCTGACAT; listed as DNA, chemistry not fully specified) [antisense p21 ODN]” the “[3H]thymidine incorporation (DNA incorporation)” value (T47D cells) was “significant attenuation” and the MAPK levels (MAPK) was “lack of modulation”.
For 5′-GACATCACCAGGATCGGACAT-3′, the “PDGF-stimulated DNA synthesis” value (A10 VSM cells; A10 VSM cells, 200 nM oligodeoxynucleotide lipofected, PDGF-BB 30 ng/ml 18 hours) was “Significant inhibition”, the “DNA synthesis relative to control oligodeoxynucleotide” value (A10 VSM cells; A10 VSM cells, 10% serum) was “markedly inhibited” and the “PDGF-stimulated DNA synthesis, dose/response” value (A10 VSM cells; A10 VSM cells, increasing oligodeoxynucleotide concentration up to 200 nM) was “inhibition of DNA synthesis with increasing concentration”. The “effects of irradiation on cell cycle arrest (DNA synthesis)” value (A10 VSM cells; VSM cells, 1 to 12 Gy, maximum potentiation at 8 Gy) was “potentiated at higher doses of radiation”, the “potentiation of irradiation effect at 12 Gy” value (A10 VSM cells; VSM cells, 12 Gy) was “did not reach statistical significance” and the “potentiation of Adriamycin growth inhibition” value (A10 VSM cells; VSM cells, 1000 to 2000 ng/ml Adriamycin) was “significant potentiation”. For the same substance, the “cell growth (DNA synthesis) stimulated with PDGF-BB and serum” value (A10 VSM cells; VSM cells, similar oligodeoxynucleotide concentrations (FIG. 9d)) was “inhibited”, the “DNA synthesis in non-irradiated cells” value (A10 VSM cells; confluent VSM cells in serum-containing medium) was “marked inhibition” and the cyclinE/cdk2 association (cyclinE/cdk2) was “no effect”. The “growth of tumors in a mouse model of breast cancer” value (Met-1 cells) was “attenuates growth of tumors”.
